Assay results published in US11331271B2, “Buccal, sublingual and intranasal delivery of fospropofol” (The Johns Hopkins University, priority 2016, dated 2022).
Read-outs that look alike come from different tables or passages of the source.

Assays:
[1] = Pharmacokinetic studies in rats: fospropofol and propofol in plasma after IV, PO or ID fospropofol; details: for F of propofol (vs 5 mg/kg IV fospropofol) / F of fospropofol (vs 5 mg/kg IV): rats
Procedure: Male Sprague-Dawley rats (Charles River, Md., USA) weighing 200-250 g were used, unless otherwise noted. Animals were housed in groups of three-inch suspended polycarbonate cages (18-inches long, 9-inches wide and 9-inches high) under a 12-h light/dark cycle. Food (Harlan/Teklab) and water (filtered and delivered via an automatic watering system) were provided ad libitum. All procedures were conducted in compliance with the laws, regulations and guidelines of the National Institutes of Health (NIH/PHS) and with approval from the local Animal Care and Use committee.
For animal studies, a fospropofol dosing solution was made by dissolving powder in water (for oral and intra-duodenal administration) or saline (for intravenous administration) into an administration volume of 1 or 2 mL/kg, as noted.
Male Sprague-Dawley rats (225-250 g) underwent implantation with indwelling jugular vein catheters for plasma sampling. Animals receiving intravenous (IV) drug administration also underwent femoral vein catheterization and, after full recovery were attached to an electronic infusion pump and administered vehicle or various concentrations of fospropofol in 1 mL total volume by gradual constant rate infusion over 10 min. Intraduodenal (ID) administration was via previously implanted catheters (HILLTOP Labs, PA) in a constant volume of 2 mL/kg body weight, by slow infusion. Oral administration (PO) was performed via a curved bulb-tipped feeding gavage tube attached to a syringe inserted carefully through the oesophagus via the side of the mouth of manually restrained rats using an administration volume of 1 mL/kg. On the day of testing, control blood samples were taken from the jugular vein prior to dosing of test compounds in conscious rats. In these studies, intravenous doses were based on previously reported behavioral and pharmacokinetic studies with fospropofol. The PO and ID doses were established based on preliminary experiments with behavioral observation, using higher doses based on lower expected oral bioavailability.
After fospropofol administration, blood samples (0.5 mL) were taken at 5, 15, 30, 45, 60, 120, 240 and 360 min post dose. An equivalent volume of blood taken from donor rats of the same strain was administered after each blood sample withdrawal, in an effort to maintain blood volume as previously described (Skrajnar, et al., 2009; Moghaddam, et al., 2002; Choi, et al., 2007). Approximately 0.05 mL of 200 mg/mL of sodium orthovanadate (SOV) solution was added to the heparinized blood collection tubes prior to blood collection to prevent ex vivo conversion via alkaline phosphatases (ALP). The blood samples were mixed, cooled and subsequently centrifuged at 3,000 rpm and 4° C. for 10 min within 30 min of collection. Plasma samples were stored at −20° C. until analysis.
For fospropofol analysis, fospropofol-d6 (internal standard prepared in 1.0 M ammonium acetate buffer) was added to the plasma samples (rat or human: 0.05 mL) and subsequently extracted using a solid phase extraction (SPE). The SPE cartridges were conditioned by gravity with methanol and 1.0 M ammonium acetate solution in water. The plasma samples with internal standard were loaded on the cartridges, washed with water and 10% methanol/water and eluted with methanol. The tubes were then evaporated under nitrogen and the residues reconstituted with 50/50 methanol/25 mM ammonium acetate in deionized water. The sample extract was then injected onto a reversed phase HPLC Zorbax Eclipse XDB-C18 column. The separated analytes were detected using tandem mass spectrometry (MS/MS) detection.

[2] = Human Study 1: absolute bioavailability, plasma pharmacokinetics of fospropofol and propofol; type: in vivo; details: for Tmax / bioavailability / half-life: male, human, plasma; for half-life: read-out: mean t1/2 of fospropofol (converted)
Procedure: In human study 1, fospropofol disodium was formulated as a sterile aqueous solution at a concentration of 20 mg/mL. Each vial provided contained 20 mL of solution, suitable for intravenous injection. Fospropofol was administered as a single dose of 400 mg orally, directly into the duodenum by gastroscopy or intravenously over 10 min. In human study 2, fospropofol disodium in capsules (200 mg) or matching placebo was administered orally.
The first study was an absolute bioavailability study of fospropofol conducted at a single center (PRA Health Sciences) in Groningen, Netherlands, as a three-way crossover study. The study enrolled 7 healthy male volunteers between 18 and 45 years of age inclusive, with a body mass index between 18 and 28 kg/m^2. Subjects stayed in the clinical unit for three consecutive periods of 3 days each, with a 3-day washout, between periods. For six subjects, the order of the administration routes was as follows—period 1: PO, period 2: ID, and period 3: IV. For one subject the order of the administration routes was the following—period 1: ID, period 2: IV and period 3: PO. In this study a single dose of 400 mg was administered by each route. Blinding and placebo control was impractical due to the requirement of unsedated endoscopic administration of fospropofol into the duodenum. Safety and overall pharmacodynamic effect was evaluated based on adverse events, vital signs, electrocardiogram (ECG), Modified Observer's Assessment of Alertness/Sedation (OAA/S) score, clinical laboratory tests, and physical examination.
In the first study, 6 mL blood samples were collected following the PO and ID fospropofol treatment periods at times of pre-dose, 5, 10, 20, 30, 45, 60, 90 min and 2, 4, 6 and 9 h post-dose and in the IV fospropofol treatment period at pre-dose and at 5, 10, 15, 20, 30, 45, 60 and 120 min post-dose. In the second study a 6 mL blood sample was collected following each fospropofol PO dose (200, 600, 1,000 and 1,200 mg) at pre-dose, 5, 10, 20, 30, 45, 60, 90 min and 2, 4, 6 and 9 h post-dose. The blood was collected in a sodium heparin vacutainer tube containing 60 mg SOV, inverted approximately eight times to dissolve SOV and placed on dry ice until it was centrifuged at 3,000 rpm for 10 min at 4° C. to harvest plasma. Plasma samples were then stored at −20° C. until analysis.
The parameters were summarized using descriptive statistics.

[3] = Stability in rat plasma at −20° C.; type: in vitro ADME
Procedure: (§1) The SPE cartridges were conditioned by gravity with methanol and 1.0 M ammonium acetate solution in water. The plasma samples with internal standard were loaded on the cartridges, washed with water and 10% methanol/water and eluted with methanol. The tubes were then evaporated under nitrogen and the residues reconstituted with 50/50 methanol/25 mM ammonium acetate in deionized water. The sample extract was then injected onto a reversed phase HPLC Zorbax Eclipse XDB-C18 column. The separated analytes were detected using tandem mass spectrometry (MS/MS) detection. […] The assays were linear with correlation coefficient of (R^2)>0.99 over the range of 10-2,000 ng/mL for rat plasma and 5-1,000 ng/mL for human plasma.
(§2) In brief, 4-[tert-octyl] phenol, (internal standard) was added to the plasma samples (0.05 mL for rat or 0.2 mL for human) and extracted using a 3M Empore C-18-SD 4 mm SPE cartridge (Millipore, Billerica, Mass., USA). […] The final eluants (˜0.3 mL) were diluted with 0.3 mL of water, and injected onto an HPLC system equipped with a C-18 analytical column (5 μm, 150×3.9 mm) and fluorescence detector set at excitation and emission wave lengths of 275 and 310 nm, respectively. […] All rat and human study samples in this study were analyzed without exceeding the stability sample integrity during validation of the methods.

[4] = type: in vitro ADME
Procedure: as §1, §2

[5] = Intranasal delivery of fospropofol in monkeys: plasma and CSF levels; type: in vivo, monkey
Procedure: More particularly, in this example, monkeys were dosed with 50 mg fospropofol by intranasal administration. Plasma and cerebrospinal fluid (CSF) were collected before treatment (graphed as t=0), 15 minutes, 30 minutes, 1 hr, and 2 hr. Samples were analyzed for propofol and fospropofol by LC/MS. […] These samples are near the limit of quantification. FIGS. 11A and 11B show the data in nM and ng/mL scales, respectively.

[6] = male, Sprague-Dawley, rat, plasma, po, 100 mg/kg
[7] = male, Sprague-Dawley, rat, plasma, 30 mg/kg
[8] = male, Sprague-Dawley, rat, plasma, 100 mg/kg
[9] = male, Sprague-Dawley, rat, plasma, iv, 5 mg/kg
[10] = male, Sprague-Dawley, rat, plasma, po, 20 mg/kg

Work on CC(C)c1cccc(C(C)C)c1O [propofol, 2,6-diisopropylphenol] yielded a bioavailability ([1]; male, Sprague-Dawley, rat, plasma) of about 100%, a bioavailability ([1]; male, Sprague-Dawley, rat, plasma, po) of 20 to 70% and a bioavailability [1, 6] of at least 70%. The “F of propofol (vs 5 mg/kg IV fospropofol)” value ([1]; fospropofol 20 mg/kg PO) was 22.7%, the “F of propofol (vs 5 mg/kg IV fospropofol)” value ([1]; fospropofol 30 mg/kg ID) was 47.3% and the “F of propofol (vs 5 mg/kg IV fospropofol)” value ([1]; fospropofol 100 mg/kg ID) was 141%. The “F of propofol (vs 5 mg/kg IV fospropofol)” value ([1]; fospropofol 100 mg/kg PO) was 70.5%, the “bioavailability (F) of propofol based on AUC(0-∞)” value ([2]; fospropofol 400 mg ID) was 37% and the “bioavailability (F) of propofol based on AUC(0-∞)” value ([2]; fospropofol 400 mg oral) was 30%. For the same compound, the Tmax ([2]; other: intraduodenal, fospropofol 400 mg ID) was 10.2 min, the bioavailability ([2]; po, 400 mg, summary in discussion) was at least 30% and the Tmax ([2]; fospropofol 400 mg PO) was 19.8 min. The “time stable at −20° C. in rat plasma” value [3] was 65 days, the “time stable at −20° C. in human plasma” value [4] was 347 days and the “propofol in plasma samples” value ([5]; 50 mg fospropofol intranasal, up to 2 hr) was “not quantifiable”.

For CC(C)c1cccc(C(C)C)c1OCOP(=O)(O)O [fospropofol], the AUC(0-inf) [1, 7] was 50 ng·h/mL, the AUC(0-t) [1, 7] was 44 ng·h/mL and the Cmax [1, 7] was 170 ng/mL. The half-life [1, 7] was 12.6 min, the AUC(0-inf) [1, 8] was 650 ng·h/mL and the AUC(0-t) [1, 8] was 644 ng·h/mL. It also gave a Cmax [1, 8] of 3740 ng/mL, a half-life [1, 8] of 13.8 min and an AUC(0-inf) [1, 9] of 3150 ng·h/mL. It also gave an AUC(0-t) [1, 9] of 3150 ng·h/mL, a Cmax [1, 9] of 16300 ng/mL and a Vd [1, 9] of 1.02 L/kg. It also gave a clearance [1, 9] of 23 mL/min/kg, a half-life [1, 9] of 29.4 min and an AUC(0-inf) [1, 10] of 60 ng·h/mL. For the same compound, the AUC(0-t) [1, 10] was 50 ng·h/mL, the Cmax [1, 10] was 230 ng/mL and the half-life [1, 10] was 11.4 min. The AUC(0-inf) [1, 6] was 2180 ng·h/mL, the AUC(0-t) [1, 6] was 2160 ng·h/mL and the Cmax [1, 6] was 9230 ng/mL. For the same compound, the half-life [1, 6] was 29.4 min, the “F of fospropofol (vs 5 mg/kg IV)” value ([1]; fospropofol 20 mg/kg PO) was 0.448% and the “F of fospropofol (vs 5 mg/kg IV)” value ([1]; fospropofol 30 mg/kg ID) was 0.264%. For the same compound, the “F of fospropofol (vs 5 mg/kg IV)” value ([1]; fospropofol 100 mg/kg ID) was 1.03%, the “F of fospropofol (vs 5 mg/kg IV)” value ([1]; fospropofol 100 mg/kg PO) was 3.46% and the “fospropofol Cmax, fold lower than IV” value ([2]; 400 mg ID vs IV) was about 534 fold. For the same compound, the “plasma fospropofol by non-intravenous routes” value ([2]; 400 mg PO or ID) was “Almost no plasma fospropofol was detected”, the “fospropofol Cmax, fold lower than IV” value ([2]; 400 mg PO vs IV) was “approximately 88 fold” and the Tmax ([2]; other: intraduodenal, 400 mg ID, read-out: Tmax of fospropofol) was 10.2 min. The bioavailability ([2]; other: intraduodenal, 400 mg ID, read-out: absolute bioavailability of fospropofol) was 0.1%, the half-life ([2]; other: intraduodenal, 400 mg ID) was 16.8 min and the half-life ([2]; 400 mg IV) was 16.8 min. It also gave a Tmax ([2]; 400 mg PO, read-out: Tmax of fospropofol) of 4.8 min, a bioavailability ([2]; 400 mg PO, read-out: absolute bioavailability of fospropofol) of 1% and a half-life ([2]; 400 mg PO) of 19.2 min. For the same compound, the “time stable at −20° C. in rat plasma” value [3] was 98 days, the “time stable at −20° C. in human plasma” value [4] was 464 days and the “fospropofol (prodrug) in plasma after intranasal administration” value ([5]; 50 mg intranasal) was “appreciable plasma concentrations of prodrug”. The “fospropofol in CSF samples” value ([5]; 50 mg intranasal, only two samples) was “low nanomolar range”.
